# In ChEMBL document CHEMBL1126464, “Carbamate series of juvenoids” (Bioorg Med Chem Lett, 1992):
# Legend:
# Acyrthosiphon pisum = assay: Concentration required for 50% inhibition of acyrthosiphon pisum (ACY) was expressed as percent of active ingredient.; assay type: functional, organism-based
# Dysdercus cingulatus = assay: Effective dose that causes 50 % inhibition of Dysdercus cingulatus (DYS) was determined.; assay type: functional
# Galleria mellonella = assay: Effective dose that causes 50 % inhibition of Galleria mellonella (GAL) was determined.; assay type: functional
IC50 (Acyrthosiphon pisum) [%],Compound,ED50 (Dysdercus cingulatus) [µg/kg],ED50 (Galleria mellonella) [µg/kg]
0.05,CCOC(=O)NCCOc1ccc(CC2CCCCC2=O)cc1 (stereo not given),8,0.2
0.005,CCOC(=O)NCCOc1ccc(CC2CCCCC23OCCO3)cc1 (stereo not given),80,0.8

# Further lines, the compound ahead of its results:
Compound,IC50 (Acyrthosiphon pisum) [%],ED50 (Dysdercus cingulatus) [µg/kg],ED50 (Galleria mellonella) [µg/kg]
CCOC(=O)/C=C(C)/C=C/CC(C)CCCC(C)C (stereo not given) [HYDROPRENE],0.04,1000,10
CCOC(=O)NCCOc1ccc(C[C@@H]2CCCC[C@@H]2O)cc1,> 0.1,1,0.8
CCOC(=O)NCCOc1ccc(C[C@H]2CCCC[C@@H]2O)cc1,> 0.1,40,0.8
